Test results taken from US20170037446A1, “METHOD FOR THE MICROBIOLOGICAL DETERMINATION OF TRACES OF A[…] LOW VOLUME BIOLOGICAL SAMPLES” (UNIVERSIDAD DE SANTIAGO DE CHILE, priority 2013, published 2017).

Experiment: Pharmacokinetic study of minocycline in CSF of rats, quantified by the microbiological method with 4PL curve fit
Assay type: in vivo
Conditions: normal Sprague-Dawley rats, intra CSF injection of 1 mg/mL MC solution
Procedure: A curve representing the percentage of bacterial growth inhibition versus antibiotic concentration applied to each well was also obtained.. Subsequently, using a curve fit analysis called “Four Parameter Curve Logistic (4PL)”, the values of antibiotic concentrations in the biological sample were obtained.
Cerebrospinal fluid (CSF) collection: It was collected by transcutaneous cisternal magna puncture. Minocycline injections were performed by the same route.
Curve fitting: Four Parameter Logistic Curve (4PL) analysis was applied to minocycline antibiotic obtained from FIG. 1:
Minocycline (MC), an antibiotic belonging to the family of tetracyclines, was used to carry out pharmacokinetic studies of CSF in Sprague-Dawley rats. Briefly, normal rats were injected via intra CSF an MC solution of 1 mg/mL, for subsequent sampling of CSF at time zero, 1, 10 and 18 hours. […] At 18 hours it is still possible to detect a concentration of 69 ng/mL (FIG. 4).

Question: For `CN(C)c1ccc(O)c2c1C[C@H]1C[C@H]3[C@H](N(C)C)C(O)=C(C(N)=O)C(=O)[C@@]3(O)C(O)=C1C2=O` [Minocycline], which “detection of MC in CSF” value (CSF sampled at time zero, 1, 10 and 18 hours) is on record?
Answer: detected at all times

Question: What about the concentration at 18 h (rat, cerebrospinal fluid (CSF), other: intra CSF (transcutaneous cisternal magna puncture), CSF sampled at 18 hours (FIG. 4)) of the same molecule?
Answer: 69 ng/mL
